According to patent US20230286973A1, “PROTEIN SECRETION INHIBITORS” (KEZAR LIFE SCIENCES, priority 2020, published 2023):

Assays:
[1] = tested on: IL-2-FL/Gaussia Luciferase; assay: Dox Induced IL2-FL-Gluc Assay; type: cell-based; conditions: for IC50: 24 hr Dox induction, 293FRT/TO cells, read-out: 24 hr Dox Inducible IL2FLGluc 293FRT/TO: Mean IC50; for 24 hr Dox Inducible IL2FLGluc 293FRT/TO: IL2/PD1: ratio of IL2FLGluc IC50 to PD1ssGluc IC50
Method in brief: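 Cells are plated one day ahead, then receive compound dilutions in DMSO/media with doxycycline and incubate at 37° C, 5% CO2. They are Flp-In 293 T-REx cells expressing a full-length IL-2 (amino acids 1-153)–Gaussia luciferase fusion under T-REx control.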

[2] = Liver Microsome Stability Assay (rat); conditions: rat liver microsomes, with NADPH, 1.0 uM compound
Description: (§1) Stability of a compound was assessed in the presence of liver microsomes from various sources—mouse, rat, monkey and human liver microsomes. 1.0 uM compound, 0.4% DMSO in 0.1 M Potassium Phosphate with 1.0 mg/mL liver microsomes, were incubated at 37° C. with or without 1 mM NADPH. The samples were quenched at 0, and 30 minutes.

[3] = Liver Microsome Stability Assay (mouse); conditions: mouse liver microsomes, with NADPH, 1.0 uM compound
Description: as §1

[4] = tested on: multiple myeloma cell line U266B1; assay: U266 Cell Viability Assay; type: cell-based, human; conditions: Homo sapiens, U-266, 48 h, U266B1 cells, Celltiter-Glo
Method in brief: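 Steps: culture in RPMI 1640 plus 10% FBS and 2 mM glutamine; plate and add compound dilutions; incubate 48 hours at 37° C., 5% CO2; add CellTiter-Glo and quantify luciferase signal.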

[5] = tested on: PD1-ss+10aa/Gaussia Luciferase; assay: Dox-Induced PD1-ss-Gluc Assay; type: cell-based; conditions: 24 hr Dox induction; 293FRT/TO cells; read-out: 24 hr Dox Inducible PD1ssGluc 293FRT/TO: Mean IC50
Method in brief: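 Flp-In 293 T-REx cells stably carrying a doxycycline-inducible Gaussia luciferase fused to the PD1 signal sequence plus 10 aa were plated the day before. Compound dilutions in DMSO/media containing doxycycline were then added and incubated at 37 °C, 5% CO2. Data for undefined stereochemistry refer to stereoisomer mixtures.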

[6] = Liver Microsome Stability Assay (monkey); conditions: monkey liver microsomes, with NADPH, 1.0 uM compound
Description: as §1

[7] = tested on: multiple myeloma cell line NCI-H929; assay: H929 Cell Viability Assay; type: cell-based, human; conditions: Homo sapiens, NCI-H929, 48 h, NCI-H929 cells, Celltiter-Glo
Method in brief: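 Luminescent ATP detection (CellTiter-Glo) after 48 hours of compound exposure measures viability. Cells were plated in RPMI 1640 containing 10% fetal bovine serum and kept at 37° C under 5% CO2.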

[8] = tested on: TNFα-FL/Gaussia Luciferase; assay: Dox Induced TNFα-FL-Gluc Assay; type: cell-based; conditions: for IC50: 24 hr Dox induction, 293FRT/TO cells, read-out: 24 hr Dox Inducible TNFaFLGluc 293FRT/TO: Mean IC50; for 24 hr Dox Inducible TNFaFLGluc 293FRT/TO: TNF/PD1: ratio of TNFaFLGluc IC50 to PD1ssGluc IC50
Method in brief: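 Stereoisomer mixtures were tested where stereochemistry is not drawn. Induction used doxycycline added together with compound dilutions in DMSO/media to Flp-In 293 T-REx cells carrying a T-REx-regulated TNFα (aa 1-233)-Gaussia luciferase construct, then incubated at 37 °C, 5% CO2.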

[9] = Liver Microsome Stability Assay (human); conditions: human liver microsomes, with NADPH, 1.0 uM compound
Description: as §1

[10] = tested on: HER3-ss+4aa/Gaussia Luciferase; assay: Dox-Induced Her3-ss-Gluc Assay; type: cell-based; conditions: 24 hr Dox induction; 293FRT/TO cells; read-out: 24 hr Dox Inducible Her3(ss + 4)Gluc 293FRT/TO: Mean IC50
Method in brief: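 Cells were seeded a day ahead, then given compound diluted in DMSO/media with doxycycline to induce expression of the HER3 signal sequence (+4 aa)–Gaussia luciferase fusion. Incubation was at 37° C., 5% CO2, in a stable Flp-In 293 T-REx line.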

Structure (SMILES) | IC50 [1] | 24 hr Dox Inducible IL2FLGluc 293FRT/TO: IL2/PD1 [1] | Liver Microsome Stability (Multiple Species): Rat - % Remaining after 30 min w/NADPH [2] | Liver Microsome Stability (Multiple Species): Mouse - % Remaining after 30 min w/NADPH [3] | EC50 [4] | IC50 [5] | Liver Microsome Stability (Multiple Species): Monkey - % Remaining after 30 min w/NADPH [6] | EC50 [7] | IC50 [8] | 24 hr Dox Inducible TNFaFLGluc 293FRT/TO: TNF/PD1 [8] | Liver Microsome Stability (Multiple Species): Human - % Remaining after 30 min w/NADPH [9] | IC50 [10]
CC(C)n1cnc(-c2ccccc2-c2csc(NC(=O)c3cccn3Cc3ccnc(F)c3)n2)c1 [Compound A169, 1-((2-fluoropyridin-4-yl)methyl)-N-(4-(2-(1-isopropyl-1H-imidazol-4-yl)phenyl)thiazol-2-yl)-1H-pyrrole-2-carboxamide] | 2170 nM | 2.2 | 0.02% | 0.08% | 15000 nM | 967 nM | 0.11% | 7810 nM | 6900 nM | 7.13 | 0.17% | 1640 nM
O=C(Nc1nc([C@H]2CCCN2c2ccc(OC3CCSCC3)cc2)cs1)c1cccn1Cc1ccnc(F)c1 [Compound A170, (R)-1-((2-fluoropyridin-4-yl)methyl)-N-(4-(1-(4-((tetrahydro-2H-thiopyran-4-yl)oxy)phenyl)pyrrolidin-2-yl)thiazol-2-yl)-1H-pyrrole-2-carboxamide] | 83.4 nM | 1.2 | 2.02% | 1.37% | > 25000 nM | 68.3 nM | 2.6% | 5710 nM | 687 nM | 10.1 | 0.58% | 81.1 nM
O=C(Nc1ccc(N2CCC[C@@H]2c2csc(NC(=O)c3cccn3Cc3ccnc(F)c3)n2)cc1)O[C@@H]1CCOC1 [Compound A171, (R)-tetrahydrofuran-3-yl (4-((R)-2-(2-(1-((2-fluoropyridin-4-yl)methyl)-1H-pyrrole-2-carboxamido)thiazol-4-yl)pyrrolidin-1-yl)phenyl)carbamate] | 6.54 nM | 1.8 | 16% | 17.3% | > 25000 nM | 3.57 nM | 28.5% | 159 nM | 71.9 nM | 20.1 | 36.8% | 4.33 nM
COC(=O)Nc1ccc(N2CCC[C@@H]2c2csc(NC(=O)c3cc(C)cn3Cc3ccnc(F)c3)n2)cc1 [Compound A172, methyl (R)-(4-(2-(2-(1-((2-fluoropyridin-4-yl)methyl)-4-methyl-1H-pyrrole-2-carboxamido)thiazol-4-yl)pyrrolidin-1-yl)phenyl)carbamate] | 5.99 nM | 2.3 | 19.7% | 44.9% | > 25000 nM | 2.66 nM | 43.3% | 190 nM | 50.4 nM | 19 | 65.3% | 5.18 nM
CN1CC(OC(=O)Nc2ccc(N3CCC[C@@H]3c3csc(NC(=O)c4cccn4Cc4ccnc(F)c4)n3)cc2)C1 [Compound A173, 1-methylazetidin-3-yl (R)-(4-(2-(2-(1-((2-fluoropyridin-4-yl)methyl)-1H-pyrrole-2-carboxamido)thiazol-4-yl)pyrrolidin-1-yl)phenyl)carbamate] | 40.4 nM | 2.5 | 17.4% | 23.8% | 8750 nM | 15.9 nM | 54.6% | 842 nM | 323 nM | 20.3 | 70.3% | 26.9 nM
O=C(Nc1ccc(N2CCC[C@@H]2c2csc(NC(=O)c3cccn3Cc3ccnc(F)c3)n2)cc1)O[C@H]1CCOC1 [Compound A174, (S)-tetrahydrofuran-3-yl (4-((R)-2-(2-(1-((2-fluoropyridin-4-yl)methyl)-1H-pyrrole-2-carboxamido)thiazol-4-yl)pyrrolidin-1-yl)phenyl)carbamate] | 8.01 nM | 3.1 | 42.5% | 29.4% | > 25000 nM | 2.62 nM | 15.4% | 77.4 nM | 81.1 nM | 30.9 | 38% | 6.19 nM
COC(=O)Nc1ccc(N2CCC[C@@H]2c2csc(NC(=O)c3cccn3Cc3ccnc(F)c3)n2)nc1 [Compound A175, methyl (R)-(6-(2-(2-(1-((2-fluoropyridin-4-yl)methyl)-1H-pyrrole-2-carboxamido)thiazol-4-yl)pyrrolidin-1-yl)pyridin-3-yl)carbamate] | 12.9 nM | 4.3 | 0.32% | 1.57% | > 25000 nM | 3.02 nM | 0.22% | 188 nM | 80.7 nM | 26.7 | 1.38% | 7.95 nM
CC(=O)N1CC(CCc2ccc(N3CCC[C@@H]3c3csc(NC(=O)c4cccn4Cc4ccnc(F)c4)n3)cc2)C1 [Compound A176] | 41.8 nM | 2.8 | 18.6% | 2.72% | > 25000 nM | 15 nM | 0.16% | 438 nM | 487 nM | 32.4 | 1.34% | 31 nM
O=C(Nc1ccc(N2CCC[C@@H]2c2csc(NC(=O)c3cccn3Cc3ccnc(F)c3)n2)cc1)OC1COC1 [Compound A177, oxetan-3-yl (R)-(4-(2-(2-(1-((2-fluoropyridin-4-yl)methyl)-1H-pyrrole-2-carboxamido)thiazol-4-yl)pyrrolidin-1-yl)phenyl)carbamate] | 2.79 nM | 3 | 57.1% | 29.1% | > 25000 nM | 0.93 nM | 9.52% | 16.2 nM | 25.8 nM | 27.6 | 39.3% | 2.39 nM
